US9434711B2 (Janssen Pharmaceutica, NV, priority 2007, dated 2016)

Target: canine TRPM8 (Canis lupus familiaris, UniProt Q1A7N1)
Assay: In Vitro Canine TRPM8 Functional Assay (Ca2+ fluorescence, icilin activation)
Type: cell-based
Settings: for IC50: HEK293 cells stably expressing canine TRPM8, icilin activation, eight-point dose-response, read-out: IC50; for inhibition at 0.2 µM / % Inh @ 0.2 (μM): compound at 0.2 μM; for inhibition at 0.2 µM: read-out: % Inh @ 0.2
Procedure, shortened: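 Readout is the intracellular Ca2+ fluorescence change, measured by FLIPR or FDSS, in HEK293 cells stably expressing canine TRPM8. Potency (EC50 or IC50) is fitted from eight concentrations averaged over quadruplicate wells.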

[1] = canine TRPM8, icilin activation

Sequence of canine TRPM8 (Q1A7N1 1-1104): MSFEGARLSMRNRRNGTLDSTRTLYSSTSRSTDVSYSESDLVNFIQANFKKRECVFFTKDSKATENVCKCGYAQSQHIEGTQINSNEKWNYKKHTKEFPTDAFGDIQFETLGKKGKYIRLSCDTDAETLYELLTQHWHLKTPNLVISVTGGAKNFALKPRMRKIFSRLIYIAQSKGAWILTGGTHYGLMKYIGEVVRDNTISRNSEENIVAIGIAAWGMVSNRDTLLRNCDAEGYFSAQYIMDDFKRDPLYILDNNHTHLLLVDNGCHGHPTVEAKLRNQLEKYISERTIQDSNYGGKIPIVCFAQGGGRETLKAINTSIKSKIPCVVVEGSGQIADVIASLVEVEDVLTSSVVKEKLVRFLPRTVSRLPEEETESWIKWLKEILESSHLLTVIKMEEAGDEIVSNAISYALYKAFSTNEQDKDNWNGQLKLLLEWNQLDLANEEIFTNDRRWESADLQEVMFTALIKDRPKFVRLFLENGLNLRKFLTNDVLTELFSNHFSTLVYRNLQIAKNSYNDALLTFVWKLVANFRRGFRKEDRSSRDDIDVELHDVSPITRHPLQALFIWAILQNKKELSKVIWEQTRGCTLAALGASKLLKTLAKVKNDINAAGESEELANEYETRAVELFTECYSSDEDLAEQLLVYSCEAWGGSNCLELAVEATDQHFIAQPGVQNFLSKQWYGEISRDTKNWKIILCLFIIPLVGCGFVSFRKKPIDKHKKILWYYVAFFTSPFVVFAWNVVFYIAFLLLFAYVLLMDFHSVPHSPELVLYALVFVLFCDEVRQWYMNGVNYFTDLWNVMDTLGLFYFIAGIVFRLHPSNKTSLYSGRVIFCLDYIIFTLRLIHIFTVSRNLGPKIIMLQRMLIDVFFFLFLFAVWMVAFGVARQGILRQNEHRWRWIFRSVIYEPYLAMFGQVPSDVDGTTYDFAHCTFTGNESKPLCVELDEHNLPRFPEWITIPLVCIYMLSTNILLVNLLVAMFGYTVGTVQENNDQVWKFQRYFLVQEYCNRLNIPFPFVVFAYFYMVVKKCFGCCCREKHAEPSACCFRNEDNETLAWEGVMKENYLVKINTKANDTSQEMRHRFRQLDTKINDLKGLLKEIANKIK

SMILES | IC50 | inhibition at 0.2 µM [1] | inhibition at 0.5 µM (compound at 0.5 μM, canine TRPM8, icilin activation, read-out: % Inh @ 0.5) | % Inh @ 0.2 (μM) [1]
O=S(=O)(c1ccc(O)cc1)N(Cc1ccc(F)c(C(F)(F)F)c1)c1sc2ccccc2c1Br [Compound 290, N-(3-Bromo-benzo[b]thiophen-2-yl)-N-(4-fluoro-3-trifluoromethyl-benzyl)-4-hydroxy-benzenesulfonamide] | 5.3 nM | 103% |  | 
O=S(=O)(c1cccc(O)c1)N(Cc1ccc(F)c(C(F)(F)F)c1)c1sc2ccccc2c1Br [Compound 291, N-(3-Bromo-benzo[b]thiophen-2-yl)-N-(4-fluoro-3-trifluoromethyl-benzyl)-3-hydroxy-benzenesulfonamide] | 5.8 nM | 101% |  | 
O=C(O)c1cccc(S(=O)(=O)N(Cc2ccc(F)c(C(F)(F)F)c2)c2sc3ccccc3c2Br)c1 [Compound 293, N-(3-Bromo-benzo[b]thiophen-2-yl)-N-(4-fluoro-3-trifluoromethyl-benzyl)-3-carboxy-benzenesulfonamide] | 7.8 nM | 101% | 101% | 
O=C(O)c1ccc(S(=O)(=O)N(Cc2ccc(F)c(C(F)(F)F)c2)c2sc3ccccc3c2Cl)cc1 [Compound 294, N-(3-Chloro-benzo[b]thiophen-2-yl)-N-(4-fluoro-3-trifluoromethyl-benzyl)-4-carboxy-benzenesulfonamide] | 1.8 nM | 99% |  | 
O=C(O)c1cccc(S(=O)(=O)N(Cc2ccc(F)c(C(F)(F)F)c2)c2cc3ccccc3s2)c1 [Compound 295, N-(Benzo[b]thiophen-2-yl)-N-(4-fluoro-3-trifluoromethyl-benzyl)-3-carboxy-benzenesulfonamide] | 33 nM | 81% |  | 
O=C(O)c1ccc(S(=O)(=O)N(Cc2ccc(F)c(C(F)(F)F)c2)c2cc3ccccc3s2)cc1 [Compound 296, N-(Benzo[b]thiophen-2-yl)-N-(4-fluoro-3-trifluoromethyl-benzyl)-4-carboxy-benzenesulfonamide] | 2 nM | 96% |  | 
O=C(O)c1ccccc1S(=O)(=O)N(Cc1ccc(F)c(C(F)(F)F)c1)c1sc2ccccc2c1Cl [Compound 297, N-(3-Chloro-benzo[b]thiophen-2-yl)-N-(4-fluoro-3-trifluoromethyl-benzyl)-2-carboxy-benzenesulfonamide] |  | 21% |  | 
O=C(O)c1ccccc1S(=O)(=O)N(Cc1ccc(F)c(C(F)(F)F)c1)c1sc2ccccc2c1Br [Compound 298, N-(3-Bromo-benzo[b]thiophen-2-yl)-N-(4-fluoro-3-trifluoromethyl-benzyl)-2-carboxy-benzenesulfonamide] |  | 18% |  | 
O=Cc1c(N(Cc2ccc(F)c(C(F)(F)F)c2)S(=O)(=O)c2ccc(C(=O)O)cc2)sc2ccccc12 [Compound 299, N-(3-Formyl-benzo[b]thiophen-2-yl)-N-(4-fluoro-3-trifluoromethyl-benzyl)-4-carboxy-benzenesulfonamide] | 3 nM | 90% |  | 
NS(=O)(=O)N(Cc1ccc(F)c(C(F)(F)F)c1)c1cc2ccccc2s1 [Compound 300, N-(Benzo[b]thiophen-2-yl)-N-(4-fluoro-3-trifluoromethyl-benzyl)-sulfamide] |  | 21% |  | 
NS(=O)(=O)N(Cc1ccc(F)c(C(F)(F)F)c1)c1sc2ccccc2c1Br [Compound 301, N-(3-Bromo-benzo[b]thiophen-2-yl)-N (4-fluoro-3-trifluoromethyl-benzyl)-sulfamide] |  |  |  | 63%
NS(=O)(=O)N(Cc1ccc(F)c(C(F)(F)F)c1)c1sc2ccccc2c1Cl [Compound 302, N-(3-Chloro-benzo[b]thiophen-2-yl)-N-(4-fluoro-3-trifluoromethyl-benzyl)-sulfamide] |  | 50% |  | 
NS(=O)(=O)N(CC1CC1)c1sc2ccccc2c1Br [Compound 303, N-(3-Bromo-benzo[b]thiophen-2-yl)-N-(cyclopropylmethyl)-sulfamide] |  | 56% |  | 
NS(=O)(=O)N(CCC(F)(F)F)c1sc2ccccc2c1Br [Compound 304, N-(3-Bromo-benzo[b]thiophen-2-yl)-N-(3,3,3-trifluoro-propyl)-sulfamide] |  | 29% |  | 
Cc1c(N(Cc2ccc(F)c(C(F)(F)F)c2)S(=O)(=O)c2cccc(C(=O)O)c2)sc2ccccc12 [Compound 305, N-(3-Methyl-benzo[b]thiophen-2-yl)-N-(4-fluoro-3-trifluoromethyl-benzyl)-3-carboxy-benzenesulfonamide] | 12 nM | 97% |  | 
O=C(O)c1cccc(S(=O)(=O)N(Cc2ccc(F)c(C(F)(F)F)c2)c2sc3ccccc3c2Cl)c1 [Compound 307, N-(3-Chloro-benzo[b]thiophen-2-yl)-N-(4-fluoro-3-trifluoromethyl-benzyl)-3-carboxy-benzenesulfonamide] | 15.1 nM | 101% |  | 
CC(=O)c1ccc(S(=O)(=O)N(Cc2ccc(F)c(C(F)(F)F)c2)c2cc3ccccc3s2)cc1 [Compound 308, N-(Benzo[b]thiophen-2-yl)-N-(4-fluoro-3-trifluoromethyl-benzyl)-4-acetyl-benzenesulfonamide] | 69.8 nM | 92% |  | 
CNS(=O)(=O)N(Cc1ccc(F)c(C(F)(F)F)c1)c1sc2ccccc2c1Cl [Compound 309, N-(3-Chloro-benzo[b]thiophen-2-yl)-N-(4-fluoro-3-trifluoromethyl-benzyl)-N′-methyl-sulfamide] | 55 nM | 93% |  | 
O=S(=O)(c1cccnc1Cl)N(Cc1ccc(F)c(C(F)(F)F)c1)c1cc2ccccc2s1 [Compound 310, N-(Benzo[b]thiophen-2-yl)-N-(4-fluoro-3-trifluoromethyl-benzyl)-2-chloro-pyridin-3-ylsulfonamide] |  | 69% |  | 
O=S(=O)(c1ccc(Cl)nc1)N(Cc1ccc(F)c(C(F)(F)F)c1)c1cc2ccccc2s1 [Compound 311, N-(Benzo[b]thiophen-2-yl)-N-(4-fluoro-3-trifluoromethyl-benzyl)-2-chloro-pyridin-5-ylsulfonamide] | 148 nM | 82% |  | 
CC(=O)c1ccc(S(=O)(=O)N(Cc2ccc(F)c(C(F)(F)F)c2)c2sc3ccccc3c2Br)cc1 [Compound 312, N-(3-Bromo-benzo[b]thiophen-2-yl)-N-(4-fluoro-3-trifluoromethyl-benzyl)-4-acetyl-benzenesulfonamide] | 11 nM | 102% |  | 
COC(=O)c1ccc(S(=O)(=O)N(Cc2ccc(F)c(C(F)(F)F)c2)c2sc3ccccc3c2C(C)=O)cc1 [Compound 313, N-(3-Acetyl-benzo[b]thiophen-2-yl)-N-(4-fluoro-3-trifluoromethyl-benzyl)-4-carbomethoxy-benzenesulfonamide] | 21 nM | 102% |  | 
CC(=O)c1c(N(Cc2ccc(F)c(C(F)(F)F)c2)S(=O)(=O)c2ccccc2)sc2ccccc12 [Compound 314, N-(3-Acetyl-benzo[b]thiophen-2-yl)-N-(4-fluoro-3-trifluoromethyl-benzyl)-benzenesulfonamide] | 10 nM | 102% |  | 
CN(C)S(=O)(=O)N(Cc1ccc(F)c(C(F)(F)F)c1)c1cc2ccccc2s1 [Compound 315, N-(Benzo[b]thiophen-2-yl)-N-(4-fluoro-3-trifluoromethyl-benzyl)-N′,N′-dimethlysulfamide] | 64 nM |  |  | 99%
